Patent publication US7030135B2, “Inhibitors of 11-β-hydroxy steroid dehydrogenase type 1” (Biovitrum AB, priority 2000, dated 2006)

How the values were obtained:
[1] = biological target: T1, human 11-β-hydroxysteroid dehydrogenase type-1 enzyme (11-β-HSD1) (Homo sapiens, UniProt P28845); test: 11-β-HSD1 enzyme scintillation proximity assay; assay type: biochemical; conditions: human 11-β-HSD1 expressed in Pichia pastoris; Ki calculated from IC50 (Cheng-Prusoff)
T1 construct: made in house; host or cells: Pichia pastoris
T1 sequence (P28845 whole entry): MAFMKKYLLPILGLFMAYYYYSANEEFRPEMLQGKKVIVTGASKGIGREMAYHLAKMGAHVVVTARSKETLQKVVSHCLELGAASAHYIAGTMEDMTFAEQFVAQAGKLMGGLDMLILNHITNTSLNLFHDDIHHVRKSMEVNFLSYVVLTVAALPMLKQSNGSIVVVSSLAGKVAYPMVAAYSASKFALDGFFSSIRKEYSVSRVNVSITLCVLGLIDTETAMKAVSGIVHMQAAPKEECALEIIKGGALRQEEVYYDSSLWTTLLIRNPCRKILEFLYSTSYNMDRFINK
Source text: [1,2(n)-^3H]-cortisone was purchased from Amersham Pharmacia Biotech. Anti-cortisol monoclonal mouse antibody, clone 6D6.7 was obtained from Immunotech and Scintillation proximity assay (SPA) beads coated with monoclonal antimouse antibodies were from Amersham Pharmacia Biotech. NADPH, tetrasodium salt was from Calbiochem and glucose-6-phosphate (G-6-P) was supplied by Sigma The human 11-β-hydroxysteroid dehydrogenase type-1 enzyme (11-β-HSD1) was expressed in Pichia pastoris. 18-β-glycyrhetinic acid (GA) was obtained from Sigma. The serial dilutions of the compounds were performed on a Tecan Genesis RSP 150. […]
The multiplication of plates was done on a WallacQuadra. The amount of the product [^3H]-cortisol, bound to the beads was determined in a Packard, Top Count microplate liquid scintillation counter. […]
The plates were covered with plastic film and incubated on a shaker for 30 minutes, at room temperature, before counting. The amount of [^3H]-cortisol, bound to the beads was determined in a microplate liquid scintillation counter.
The calculation of the Ki values for the inhibitors was performed by use of Activity Base. The Ki value is calculated from IC50 and the Km value is calculated using the Cheng Prushoff equation (with reversible inhibition that follows the Michaelis-Menten equation): […] [Cheng, Y. C.; Prushoff, W. H. Biochem. Pharmacol. 1973, 22, 3099–3108]. […]

bone nodule formation = conditions: cited from earlier work

Ki [1] [nM]	SMILES	negative glucocorticoid effect on bone nodule formation (bone nodule formation)
28	Cc1cc(Cl)cc(Cl)c1S(=O)(=O)Nc1nc2c(s1)C(=O)CC(C)(C)C2 [Example 8, 2,4-Dichloro-N-(5,5-dimethyl-7-oxo-4,5,6,7-tetrahydro-1,3-benzothiazol-2-yl)-6-methylbenzenesulfonamide.]	
	CC1(C)[C@@H](OC(=O)CCC(=O)O)CC[C@]2(C)[C@H]3C(=O)C=C4[C@@H]5C[C@@](C)(C(=O)O)CC[C@]5(C)CC[C@@]4(C)[C@]3(C)CC[C@@H]12 [carbenoxolone]	could be blocked
227	Cc1cc(Br)ccc1S(=O)(=O)Nc1nc2c(s1)C(=O)CC(C)C2 (stereo not drawn) [Example 16, 4-Bromo-2methyl-N-(5methyl-7-oxo-4,5,6,7-tetrahydro-1,3-benzothiazol-2-yl)benzenesulfonamide]	
